# Measured values taken from ChEMBL document CHEMBL1201862, “PubChem BioAssay data set” (2004).
#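 Where inhibition never reached the appropriate level, the endpoint shown equals the highest concentration tested. Otherwise, values were interpolated linearly from a five-concentration, 48-hour dose response in 96-well plates. Here, GI50 denotes the concentration required for 50% inhibition of growth.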 The source made the active and inactive calls. Cut-off read from the data, not from the text of the source: active = GI50 up to about 1.1 µM and inactive = higher.
# Columns and labels:
# Experiment in all cases: NCI-60 cell line screen, 48 h
# 786-0 = test system: 786-0
# A498 = test system: A498
# ACHN = test system: ACHN
# BT-549 = test system: BT-549
# CAKI-1 = test system: CAKI-1
# CCRF-CEM = test system: CCRF-CEM
# COLO 205 = test system: COLO 205
# DU-145 = test system: DU-145
# EKVX = test system: EKVX
# HCT-116 = test system: HCT-116
# HCT-15 = test system: HCT-15
# HL-60 = test system: HL-60
# HOP-62 = test system: HOP-62
# HT-29 = test system: HT-29
# Hs-578T = test system: Hs-578T
# IGROV-1 = test system: IGROV-1
# K562 = test system: K562
# KM12 = test system: KM12
# LOX IMVI = test system: LOX IMVI
# M14 = test system: M14
# MCF7 = test system: MCF7
# MDA-MB-231 = test system: MDA-MB-231
# MDA-MB-435 = test system: MDA-MB-435
# MDA-N = test system: MDA-N
# MOLT-4 = test system: MOLT-4
# Malme-3M = test system: Malme-3M
# NCI-H226 = test system: NCI-H226
# NCI-H23 = test system: NCI-H23
# NCI-H460 = test system: NCI-H460
# NCI/ADR-RES = test system: NCI/ADR-RES
# OVCAR-3 = test system: OVCAR-3
# OVCAR-5 = test system: OVCAR-5
# OVCAR-8 = test system: OVCAR-8
# PC-3 = test system: PC-3
# RPMI-8226 = test system: RPMI-8226
# RXF 393 = test system: RXF 393
# SF-268 = test system: SF-268
# SF-295 = test system: SF-295
# SF-539 = test system: SF-539
# SK-MEL-28 = test system: SK-MEL-28
# SK-MEL-2 = test system: SK-MEL-2
# SK-MEL-5 = test system: SK-MEL-5
# SK-OV-3 = test system: SK-OV-3
# SN12C = test system: SN12C
# SNB-19 = test system: SNB-19
# SNB-75 = test system: SNB-75
# SR = test system: SR
# SW-620 = test system: SW-620
# TK-10 = test system: TK-10
# U-251 = test system: U-251
# UACC-257 = test system: UACC-257
# UACC-62 = test system: UACC-62
# UO-31 = test system: UO-31
# A549 = test system: A549
# HCC 2998 = test system: HCC 2998
# HOP-92 = test system: HOP-92
# NCI-H522 = test system: NCI-H522
# OVCAR-4 = test system: OVCAR-4
compound,measurement,setting,value
Fc1ccc(/C(=N/Cc2ccccc2)N2CCOCC2)cc1,GI50,786-0,> 100 µM (inactive)
same,GI50,A498,> 100 µM (inactive)
same,GI50,ACHN,> 100 µM (inactive)
same,GI50,BT-549,> 100 µM (inactive)
same,GI50,CAKI-1,> 100 µM (inactive)
same,GI50,CCRF-CEM,> 100 µM (inactive)
same,GI50,COLO 205,> 100 µM (inactive)
same,GI50,DU-145,> 100 µM (inactive)
same,GI50,EKVX,> 100 µM (inactive)
same,GI50,HCT-116,> 100 µM (inactive)
same,GI50,HCT-15,> 100 µM
same,GI50,HL-60,> 100 µM (inactive)
same,GI50,HOP-62,> 100 µM (inactive)
same,GI50,HT-29,> 100 µM (inactive)
same,GI50,Hs-578T,> 100 µM (inactive)
same,GI50,IGROV-1,> 100 µM (inactive)
same,GI50,K562,> 100 µM (inactive)
same,GI50,KM12,> 100 µM (inactive)
same,GI50,LOX IMVI,> 100 µM (inactive)
same,GI50,M14,> 100 µM (inactive)
same,GI50,MCF7,> 100 µM (inactive)
same,GI50,MDA-MB-231,> 100 µM (inactive)
same,GI50,MDA-MB-435,> 100 µM (inactive)
same,GI50,MDA-N,> 100 µM (inactive)
same,GI50,MOLT-4,> 100 µM (inactive)
same,GI50,Malme-3M,> 100 µM (inactive)
same,GI50,NCI-H226,> 100 µM (inactive)
same,GI50,NCI-H23,> 100 µM (inactive)
same,GI50,NCI-H460,> 100 µM (inactive)
same,GI50,NCI/ADR-RES,> 100 µM (inactive)
same,GI50,OVCAR-3,> 100 µM (inactive)
same,GI50,OVCAR-5,> 100 µM (inactive)
same,GI50,OVCAR-8,> 100 µM (inactive)
same,GI50,PC-3,> 100 µM (inactive)
same,GI50,RPMI-8226,> 100 µM (inactive)
same,GI50,RXF 393,> 100 µM (inactive)
same,GI50,SF-268,> 100 µM (inactive)
same,GI50,SF-295,> 100 µM (inactive)
same,GI50,SF-539,> 100 µM (inactive)
same,GI50,SK-MEL-28,> 100 µM (inactive)
same,GI50,SK-MEL-2,> 100 µM (inactive)
same,GI50,SK-MEL-5,> 100 µM (inactive)
same,GI50,SK-OV-3,> 100 µM (inactive)
same,GI50,SN12C,> 100 µM (inactive)
same,GI50,SNB-19,> 100 µM (inactive)
same,GI50,SNB-75,> 100 µM (inactive)
same,GI50,SR,> 100 µM (inactive)
same,GI50,SW-620,> 100 µM (inactive)
same,GI50,TK-10,> 100 µM (inactive)
same,GI50,U-251,> 100 µM (inactive)
same,GI50,UACC-257,> 100 µM (inactive)
same,GI50,UACC-62,> 100 µM (inactive)
same,GI50,UO-31,67.5 µM (inactive)
Cc1cn([C@@H]2C[C@](C)(CO)N(C)O2)c(=O)[nH]c1=O,GI50,786-0,> 100 µM (inactive)
same,GI50,A498,> 100 µM (inactive)
same,GI50,A549,> 100 µM (inactive)
same,GI50,ACHN,> 100 µM (inactive)
same,GI50,BT-549,> 100 µM (inactive)
same,GI50,CAKI-1,> 100 µM (inactive)
same,GI50,CCRF-CEM,> 100 µM (inactive)
same,GI50,COLO 205,> 100 µM (inactive)
same,GI50,DU-145,> 100 µM (inactive)
same,GI50,EKVX,> 100 µM (inactive)
same,GI50,HCC 2998,> 100 µM (inactive)
same,GI50,HCT-116,> 100 µM (inactive)
same,GI50,HCT-15,> 100 µM
same,GI50,HL-60,> 100 µM (inactive)
same,GI50,HOP-62,> 100 µM (inactive)
same,GI50,HOP-92,> 100 µM (inactive)
same,GI50,HT-29,> 100 µM (inactive)
same,GI50,Hs-578T,> 100 µM (inactive)
same,GI50,IGROV-1,> 100 µM (inactive)
same,GI50,K562,> 100 µM (inactive)
same,GI50,KM12,> 100 µM (inactive)
same,GI50,LOX IMVI,> 100 µM (inactive)
same,GI50,M14,> 100 µM (inactive)
same,GI50,MCF7,> 100 µM (inactive)
same,GI50,MDA-MB-231,> 100 µM (inactive)
same,GI50,MDA-MB-435,> 100 µM (inactive)
same,GI50,MDA-N,> 100 µM (inactive)
same,GI50,Malme-3M,> 100 µM (inactive)
same,GI50,NCI-H226,> 100 µM (inactive)
same,GI50,NCI-H23,> 100 µM (inactive)
same,GI50,NCI-H460,> 100 µM (inactive)
same,GI50,NCI-H522,> 100 µM (inactive)
same,GI50,NCI/ADR-RES,> 100 µM (inactive)
same,GI50,OVCAR-4,> 100 µM (inactive)
same,GI50,OVCAR-5,> 100 µM (inactive)
same,GI50,OVCAR-8,> 100 µM (inactive)
same,GI50,PC-3,> 100 µM (inactive)
same,GI50,RPMI-8226,> 100 µM (inactive)
same,GI50,RXF 393,> 100 µM (inactive)
same,GI50,SF-268,> 100 µM (inactive)
same,GI50,SF-295,> 100 µM (inactive)
same,GI50,SK-MEL-28,> 100 µM (inactive)
same,GI50,SK-MEL-2,> 100 µM (inactive)
same,GI50,SK-MEL-5,> 100 µM (inactive)
same,GI50,SK-OV-3,> 100 µM (inactive)
same,GI50,SN12C,> 100 µM (inactive)
same,GI50,SNB-19,> 100 µM (inactive)
same,GI50,SNB-75,8.53 µM (inactive)
same,GI50,SR,> 100 µM (inactive)
same,GI50,SW-620,> 100 µM (inactive)
same,GI50,TK-10,> 100 µM (inactive)
same,GI50,U-251,> 100 µM (inactive)
same,GI50,UACC-257,> 100 µM (inactive)
same,GI50,UACC-62,> 100 µM (inactive)
same,GI50,UO-31,> 100 µM (inactive)
Cc1cc2c(cc1C)[n+]([O-])c(C#N)c(Cl)[n+]2[O-],GI50,A498,19.7 µM (inactive)
same,GI50,A549,18.6 µM (inactive)
same,GI50,ACHN,10.5 µM (inactive)
same,GI50,BT-549,15.6 µM (inactive)
same,GI50,CAKI-1,6.46 µM (inactive)
same,GI50,CCRF-CEM,4.92 µM (inactive)
same,GI50,COLO 205,6.92 µM (inactive)
same,GI50,DU-145,14.9 µM (inactive)
same,GI50,EKVX,6.59 µM (inactive)
same,GI50,HCC 2998,11 µM (inactive)
same,GI50,HCT-116,14.1 µM (inactive)
same,GI50,HCT-15,4.35 µM
same,GI50,HL-60,7.78 µM (inactive)
same,GI50,HOP-62,19.6 µM (inactive)
same,GI50,HOP-92,16.2 µM (inactive)
same,GI50,HT-29,4.44 µM (inactive)
same,GI50,Hs-578T,15.9 µM (inactive)
same,GI50,IGROV-1,10.6 µM (inactive)
same,GI50,K562,10.3 µM (inactive)
same,GI50,LOX IMVI,12.1 µM (inactive)
same,GI50,MCF7,12.9 µM (inactive)
same,GI50,MDA-MB-231,19.1 µM (inactive)
same,GI50,MDA-MB-435,21 µM (inactive)
same,GI50,MDA-N,17.5 µM (inactive)
same,GI50,MOLT-4,5.05 µM (inactive)
same,GI50,Malme-3M,12.9 µM (inactive)
same,GI50,NCI-H226,21.7 µM (inactive)
same,GI50,NCI-H23,11.7 µM (inactive)
same,GI50,NCI-H460,11.7 µM (inactive)
same,GI50,NCI-H522,11 µM (inactive)
same,GI50,NCI/ADR-RES,15.8 µM (inactive)
same,GI50,OVCAR-3,7.78 µM (inactive)
same,GI50,OVCAR-4,13.9 µM (inactive)
same,GI50,OVCAR-5,12.7 µM (inactive)
same,GI50,OVCAR-8,15.3 µM (inactive)
same,GI50,PC-3,13.2 µM (inactive)
same,GI50,RPMI-8226,12.3 µM (inactive)
same,GI50,RXF 393,13.2 µM (inactive)
same,GI50,SF-268,18.1 µM (inactive)
same,GI50,SF-295,23.7 µM (inactive)
same,GI50,SF-539,14.3 µM (inactive)
same,GI50,SK-MEL-28,14.1 µM (inactive)
same,GI50,SK-MEL-2,17.4 µM (inactive)
same,GI50,SK-MEL-5,11.9 µM (inactive)
same,GI50,SK-OV-3,16.4 µM (inactive)
same,GI50,SN12C,13.6 µM (inactive)
same,GI50,SNB-19,34.3 µM (inactive)
same,GI50,SNB-75,1.88 µM (inactive)
same,GI50,SR,3.82 µM (inactive)
same,GI50,SW-620,11.7 µM (inactive)
same,GI50,TK-10,14.4 µM (inactive)
same,GI50,U-251,13.8 µM (inactive)
same,GI50,UACC-257,13.8 µM (inactive)
same,GI50,UACC-62,11.7 µM (inactive)
same,GI50,UO-31,12 µM (inactive)
